# What was measured:
# [1] = 25 mg icariin/kg diet; corresponding to 4 mg/kg body weight/day; cited from earlier work
# [2] = test system: C57Bl/6 mice on high fat diet (HFD); assay: Histological analysis of hepatic lipid accumulation (hepatic steatosis), high fat diet model
# Excerpt: (§1) Chronic high fat diet was used in C57Bl/6 mice as an experimental model of hepatic steatosis. Male C57/BL6 mice were either maintained on standard low-fat diet (control; LFD; 10% energy from fat) or placed on a high fat (HFD; 60% energy from fat, Research Diets #D12492, Research Diets, Inc., New Brunswick, N.J.) at six weeks of age to induce obesity and fatty infiltration of the liver. […] Animals fed with LFD have normal cellular structure in liver cells. […] Animals were then randomized to treatments for an additional six weeks, with 10 animals per group, as specified in the following examples.
# (§2) The 1.5 g/kg diet of metformin corresponds to a therapeutically effective dose of metformin in humans.
# (§3) Following induction of hepatic steatosis as described in Example 1, animals were treated for six weeks according to the following treatment groups as depicted in Table 22:
# (§4) In this study, the effects of metformin alone (therapeutic dose) vs. combination therapy with sub-therapeutic amounts of metformin and HMB on liver weight and hepatic lipid accumulation were assessed. Following induction of hepatic steatosis as described in Example 1, animals were treated for six weeks according to the following treatment groups as depicted in Table 23:
# [3] = test system: C57Bl/6 mice on high fat diet (HFD); assay: Liver weight after six weeks treatment in chronic high fat diet model of hepatic steatosis; type: in vivo
# Excerpt: as §1, §2, §3, §4
# [4] = test system: C57Bl/6 mice on high fat diet (HFD); conditions: Example 3; metformin alone 1.5 g/kg diet; leucine 24 g/kg + metformin 0.5 g/kg
# Excerpt: Chronic high fat diet was used in C57Bl/6 mice as an experimental model of hepatic steatosis. Male C57/BL6 mice were either maintained on standard low-fat diet (control; LFD; 10% energy from fat) or placed on a high fat (HFD; 60% energy from fat, Research Diets #D12492, Research Diets, Inc., New Brunswick, N.J.) at six weeks of age to induce obesity and fatty infiltration of the liver. […] Animals were then randomized to treatments for an additional six weeks, with 10 animals per group, as specified in the following examples.
# In this study, the effects of metformin alone (therapeutic dose) vs. combination therapy with sub-therapeutic amounts of metformin and leucine on liver weight and hepatic lipid accumulation were assessed.
# [5] = test system: C57Bl/6 mice on high fat diet (HFD); assay: Prophylactic treatment concurrent with high fat diet: liver mass and hepatic lipid accumulation; type: in vivo; conditions: six weeks, metformin alone 1.5 g/kg
# Method: In this study, the prophylactic effects of metformin alone, and various combinations of metformin, leucine, and resveratrol on liver mass and hepatic steatosis are assessed. C57Bl/6 mice are assigned to the following experimental groups as depicted in Table 25: Drug treatments and high fat diet feeding (as described in Example 1) are initiated on the same day and are carried out for six weeks. The effects of the treatments and diet on liver mass and hepatic lipid accumulation are assessed as described in the preceding examples. […] In this study, the prophylactic effects of metformin alone, and various combinations of metformin, HMB, and resveratrol on liver mass and hepatic steatosis are assessed. C57Bl/6 mice are assigned to the following experimental groups as depicted in Table 26: Drug treatments and high fat diet feeding (as described in Example 1) are initiated on the same day and are carried out for six weeks. The effects of the treatments and diet on liver mass and hepatic lipid accumulation are assessed as described in the preceding examples. […] In this study, the prophylactic effects of sub-therapeutic leucine alone, and co-administration of leucine and the PDE5-specific inhibitor icariin on liver mass and hepatic steatosis are assessed. […] The effects of the treatments and diet on liver mass and hepatic lipid accumulation are assessed as described in the preceding examples.
Compound,effect on liver mass or hepatic lipid accumulation [1],"hepatic steatosis (histology) ([2]; Example 2, HFD mice, six weeks, metformin alone at therapeutic dosage, combinations at sub-therapeutic dosages)","hepatic steatosis (histology) ([2]; Example 3, metformin alone therapeutic, leucine + metformin 0.5 g/kg)","effect on liver weight ([3]; Example 2, metformin alone 1.5 g/kg diet, leucine 24 g/kg diet, resveratrol 12.5 mg/kg diet)","effect on liver weight ([3]; Example 3, metformin alone 1.5 g/kg diet, leucine 24 g/kg + metformin 0.25 and 0.5 g/kg, p<0.02 vs. HFD)","effect on liver weight ([3]; Example 4, metformin alone 1.5 g/kg diet, CaHMB 2 g/kg diet + metformin 0.25 and 0.5 g/kg, p<0.03)",effect on liver triglycerides [4],"HFD-induced increase in liver mass and hepatic lipid accumulation (prophylactic) ([5]; Example 6, treatment and HFD started same day, leucine 24 g/kg + metformin 0.15-0.50 g/kg ± resveratrol 12.5 mg/kg diet)","HFD-induced increase in liver mass and hepatic lipid accumulation (prophylactic) ([5]; Example 7, CaHMB 2 g/kg + metformin 0.15-0.50 g/kg ± resveratrol 12.5 mg/kg diet)"
COc1ccc(-c2oc3c(CC=C(C)C)c(O[C@@H]4O[C@H](CO)[C@@H](O)[C@H](O)[C@H]4O)cc(O)c3c(=O)c2O[C@@H]2O[C@@H](C)[C@H](O)[C@@H](O)[C@H]2O)cc1 [icariin],no effect,–,–,–,–,–,–,–,–
metformin,–,partial reversal of the effects of HFD on hepatic steatosis,partially reversed hepatic steatosis,partially reverse the effect of high fat diet on liver weight,reversed the effect of high fat diet on liver weight back to control levels,reversed the effect of high fat diet on liver weight back to control levels,partially reversed the effect of high fat diet on liver triglycerides,attenuates the HFD-induced increase in liver mass and hepatic lipid accumulation,attenuates the HFD-induced increase in liver mass and hepatic lipid accumulation

# Source: patent US20170239253A1, “COMPOSITIONS AND METHODS FOR THE REDUCTION OR PREVENTION OF NON-ALCOHOLIC STEATOHEPATITIS (NASH)” (NuSirt Sciences, Inc., priority 2015, published 2017)
